Laboratory results published in patent US8952157B2, “Apoptosis-inducing agents for the treatment of cancer and immune and autoimmune diseases” (AbbVie Inc., priority 2008, dated 2015).

target: GST-Bcl-2 (Homo sapiens (Human), UniProt P10415); assay: Time Resolved-Fluorescence Resonance Energy Transfer (TR-FRET) Bcl-2 binding assay; details: GST-Bcl-2 1 nM, F-Bak peptide probe 100 nM, Tb-anti-GST antibody 1 nM; Ki by Wang's equation
Procedure, shortened: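 Competition TR-FRET: GST-Bcl-2 with fluorescent Bak peptide probe and Tb-anti-GST antibody, compounds serially diluted from 50 μM (2× start, 10% DMSO).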

Chain of GST-Bcl-2 (P10415 whole entry): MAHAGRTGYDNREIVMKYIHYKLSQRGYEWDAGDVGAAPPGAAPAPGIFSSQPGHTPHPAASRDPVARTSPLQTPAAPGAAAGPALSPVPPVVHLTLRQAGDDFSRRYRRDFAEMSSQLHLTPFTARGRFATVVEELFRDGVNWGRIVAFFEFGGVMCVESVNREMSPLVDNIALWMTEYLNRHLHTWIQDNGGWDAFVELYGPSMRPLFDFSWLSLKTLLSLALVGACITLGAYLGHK

| Compound | Ki |
| --- | --- |
| CC1(C)CCC(CN2CCN(c3ccc(C(=O)NS(=O)(=O)c4ccc(NC5CCN(C6CCOCC6)CC5)c([N+](=O)[O-])c4)c(Oc4cc(F)cc5[nH]ccc45)c3)CC2)=C(c2ccc(Cl)cc2)C1 [Example 210, 4-(4-{[2-(4-chlorophenyl)-4,4-dimethylcyclohex-1-en-1-yl]methyl}piperazin-1-yl)-2-[(6-fluoro-1H-indol-4-yl)oxy]-N-({3-nitro-4-[(1-tetrahydro-2H-pyran-4-ylpiperidin-4-yl)amino]phenyl}sulfonyl)benzamide] | 0.02 nM |
| CC1(C)CC(c2ccc(Cl)cc2)=C(CN2CCN(c3ccc(C(=O)NS(=O)(=O)c4cnc(OCC5(F)CCOCC5)c(Cl)c4)c(Oc4cnc(N)c(Cl)c4)c3)CC2)CO1 [Example 390, 2-[(6-amino-5-chloropyridin-3-yl)oxy]-N-({5-chloro-6-[(4-fluorotetrahydro-2H-pyran-4-yl)methoxy]pyridin-3-yl}sulfonyl)-4-(4-{[4-(4-chlorophenyl)-6,6-dimethyl-5,6-dihydro-2H-pyran-3-yl]methyl}piperazin-1-yl)benzamide] | < 0.01 nM |
| CC1(C)CCC(CN2CCN(c3ccc(C(=O)NS(=O)(=O)c4ccc(NN5CCS(=O)(=O)CC5)c([N+](=O)[O-])c4)c(Oc4cc5cc[nH]c5cc4F)c3)CC2)=C(c2ccc(Cl)cc2)C1 [Example 331, 4-(4-{[2-(4-chlorophenyl)-4,4-dimethylcyclohex-1-en-1-yl]methyl}piperazin-1-yl)-N-({4-[(1,1-dioxidothiomorpholin-4-yl)amino]-3-nitrophenyl}sulfonyl)-2-[(6-fluoro-1H-indol-5-yl)oxy]benzamide] | 0.238 nM |
| CC1(C)CCC(CN2CCN(c3ccc(C(=O)NS(=O)(=O)c4ccc(NCC5CCOCC5)c([N+](=O)[O-])c4)c(Oc4ccc(NC(=O)OC(C)(C)C)nc4)c3)CC2)=C(c2ccc(Cl)cc2)C1 [Example 270, tert-butyl 5-(5-(4-{[2-(4-chlorophenyl)-4,4-dimethylcyclohex-1-en-1-yl]methyl}piperazin-1-yl)-2-{[({3-nitro-4-[(tetrahydro-2H-pyran-4-ylmethyl)amino]phenyl}sulfonyl)amino]carbonyl}phenoxy)pyridin-2-ylcarbamate] | > 1200 nM |
| CC1(C)CCC(CN2CCN(c3ccc(C(=O)NS(=O)(=O)c4ccc(OCC5COCCO5)c([N+](=O)[O-])c4)c(Oc4cc5cc[nH]c5cc4Cl)c3)CC2)=C(c2ccc(Cl)cc2)C1 (stereo not shown) [Example 290, 2-[(6-chloro-1H-indol-5-yl)oxy]-4-(4-{[2-(4-chlorophenyl)-4,4-dimethylcyclohex-1-en-1-yl]methyl}piperazin-1-yl)-N-{[4-(1,4-dioxan-2-ylmethoxy)-3-nitrophenyl]sulfonyl}benzamide] | 0.251 nM |
| CN1CCN(Nc2ccc(S(=O)(=O)NC(=O)c3ccc(N4CCN(CC5=C(c6ccc(Cl)cc6)CC(C)(C)OC5)CC4)cc3Oc3cccc(Cl)c3)cc2[N+](=O)[O-])CC1 [Example 185, 2-(3-chlorophenoxy)-4-(4-{[4-(4-chlorophenyl)-6,6-dimethyl-5,6-dihydro-2H-pyran-3-yl]methyl}piperazin-1-yl)-N-({4-[(4-methylpiperazin-1-yl)amino]-3-nitrophenyl}sulfonyl)benzamide] | 0.083 nM |
| CN1CCN(Nc2ccc(S(=O)(=O)NC(=O)c3ccc(N4CCN(CC5=C(c6ccc(Cl)cc6)CC(C)(C)CC5)CC4)cc3Oc3ccc4[nH]cc(CCN)c4c3)cc2[N+](=O)[O-])CC1 [Example 300, 2-{[3-(2-aminoethyl)-1H-indol-5-yl]oxy}-4-(4-{[2-(4-chlorophenyl)-4,4-dimethylcyclohex-1-en-1-yl]methyl}piperazin-1-yl)-N-({4-[(4-methylpiperazin-1-yl)amino]-3-nitrophenyl}sulfonyl)benzamide] | 13.7 nM |
| CN(C)CCCNc1ccc(S(=O)(=O)NC(=O)c2ccc(N3CCN(CC4=C(c5ccc(Cl)cc5)CC(C)(C)CC4)CC3)cc2Oc2cccc3c2c(CN2CCN(C)CC2)cn3CN2CCN(C)CC2)cc1[N+](=O)[O-] [Example 212, 2-({1,3-bis[(4-methylpiperazin-1-yl)methyl]-1H-indol-4-yl}oxy)-4-(4-{[2-(4-chlorophenyl)-4,4-dimethylcyclohex-1-en-1-yl]methyl}piperazin-1-yl)-N-[(4-{[3-(dimethylamino)propyl]amino}-3-nitrophenyl)sulfonyl]benzamide] | 0.375 nM |
| CN1CCC(Nc2ccc(S(=O)(=O)NC(=O)c3ccc(N4CCN(CC5=C(c6ccc(Cl)cc6)CCCCC5)CC4)cc3Oc3ccccc3Cl)cc2[N+](=O)[O-])CC1 [Example 56, 2-(2-chlorophenoxy)-4-(4-((2-(4-chlorophenyl)cyclohept-1-en-1-yl)methyl)piperazin-1-yl)-N-((4-((1-methylpiperidin-4-yl)amino)-3-nitrophenyl)sulfonyl)benzamide] | 0.106 nM |
| CC1(C)CCC(CN2CCN(c3ccc(C(=O)NS(=O)(=O)c4ccc(NC5CCN(C6COC6)CC5)c([N+](=O)[O-])c4)c(Oc4cnc(N)c(Cl)c4)c3)CC2)=C(c2ccc(Cl)cc2)C1 [Example 364, 2-[(6-amino-5-chloropyridin-3-yl)oxy]-4-(4-{[2-(4-chlorophenyl)-4,4-dimethylcyclohex-1-en-1-yl]methyl}piperazin-1-yl)-N-({3-nitro-4-[(1-oxetan-3-ylpiperidin-4-yl)amino]phenyl}sulfonyl)benzamide] | 0.014 nM |
